From BindingDB's records for doi:10.1021/jm00076a014 (Zeneca Pharmaceuticals, 1994) come the findings set out here.

pIC50: −log10 of the molar value.

The assay deals with prolyl 4-hydroxylase (collagen, EC 1.14.11.2). The assay can be described thus: Inhibition of prolyl 4-hydroxylase by chromatographic determination of [14C]-succinic acid on ion-exchange minicolumna.

Turning to `O=C(NS(=O)(=O)c1ccccc1)c1ccc(-c2ccc(C(=O)NS(=O)(=O)c3ccccc3)cn2)nc1` [3-phenylsulfonamidocarbonyl-6-(5-phenylsulfonamidocarbonyl-2-pyridyl)pyridine], the pIC50 is 5.30.

`CCOc1ccc(NC(=O)c2ccc(-c3ccc(C(=O)O)cn3)nc2)cc1` [5'-(4-Ethoxy-phenylcarbamoyl)-[2,2']bipyridinyl-5-carboxylic acid] showed a pIC50 of 6.49.
